± gives the standard deviation.
Test: chemical recovery from spiked human plasma; higher = better extraction
Conditions: pooled human plasma
[1] = extraction method: SPE only (HLB 96-well)
[2] = extraction method: solvent precipitation (ACN + hexane)
[3] = extraction method: PES+SPE (3 d PDMS equilibration then HLB SPE)
[4] = extraction method: SPE only (HLB 96-well), PES comparison experiment

Row | Structure (SMILES) | chemical recovery [1] [%] | chemical recovery [2] [%] | chemical recovery [3] [%] | chemical recovery [4] [%]
1 | Cc1ccc2cc3c(ccc4ccccc43)c3c2c1CC3 [3-Methylcholanthrene] | 0.839 ± 0.34 | 58.3 ± 3.3 |  | 
2 | O=C(O)CCC(F)(F)C(F)(F)C(F)(F)F [3.3-FTCA] | 0.288 ± 0.082 |  | 2.63 ± 2.7 | 
3 | CC(C)(c1ccccc1)c1ccc(Nc2ccc(C(C)(C)c3ccccc3)cc2)cc1 [4,4'-Bis(alpha,alpha-dimethylbenzyl)diphenylamine] | 2.12 ± 1.1 |  |  | 
4 | ClC(Cl)=C(c1ccc(Cl)cc1)c1ccc(Cl)cc1 [4,4'-DDE] | 0.779 ± 0.23 | 41.1 ± 2.4 | 49.3 ± 15 | 
5 | Clc1ccc(C(c2ccc(Cl)cc2)C(Cl)(Cl)Cl)cc1 [4,4'-DDT] | 3.49 ± 1.1 | 56.7 ± 8.1 | 81.7 ± 22 | 
6 | Nc1ccc(Cc2ccc(N)cc2)cc1 [4,4'-Methylenedianiline] | 9.55 ± 0.81 | 31.9 ± 11 |  | 
7 | Nc1ccc(Oc2ccc(N)cc2)cc1 [4,4'-Oxydianiline] | 8.07 ± 0.83 | 26.3 ± 9 | 0.849 ± 0.6 | 
8 | Clc1ccc(C(c2ccc(Cl)cc2)C(Cl)(Cl)Cl)cc1 [4,4-DDT] |  |  |  | 52.8 ± 20
9 | CC(=O)CCc1ccc(O)cc1 [4-(4-Hydroxyphenyl)butan-2-one] | 60 ± 5.2 | 64.5 ± 4 | 64.8 ± 5.4 | 
10 | CN(C)c1ccncc1 [4-(Dimethylamino)pyridine] | 2.53 ± 2.1 | 60.5 ± 4 | 0.689 ± 0.15 | 
11 | CC(=O)N1CCOCC1 [4-Acetylmorpholine] | 3.35 ± 3.7 |  |  | 
12 | CC(C)(c1ccccc1)c1ccc(O)cc1 [4-Cumylphenol] | 30.6 ± 7.2 | 46.6 ± 4.5 |  | 
13 | Oc1c(Cl)cc(-c2ccc(Cl)cc2)cc1Cl [4-Hydroxy-3,4',5-trichlorobiphenyl] | 36.1 ± 5.9 | 27.9 ± 1.8 | 46.3 ± 7.3 | 
14 | O=C(c1ccccc1)c1ccc(O)cc1 [4-Hydroxybenzophenone] | 53 ± 4.1 | 77.7 ± 3.6 | 65.9 ± 5.4 | 
15 | Oc1cccc2n[nH]nc12 [4-Hydroxybenzotriazole] | 32.8 ± 2.4 | 3.14 ± 2.8 |  | 48 ± 8.1
16 | Oc1ccnc2ccccc12 [4-Hydroxyquinoline] | 44.7 ± 1.7 |  |  | 
17 | CC(C)(C)CC(C)(C)c1ccc(O)cc1 [4-Tert-Octylphenol] | 25.4 ± 2 |  |  | 
18 | CC1(C)C(=O)NC(=O)NC1=O [5,5-Dimethylbarbituric-acid] | 8.69 ± 8.3 | 39.8 ± 10 | 5.81 ± 5 | 
19 | c1ccc2c(c1)[nH]c1ccncc12 [5-Carboline] | 34.1 ± 2.7 | 72.4 ± 3.9 | 25.1 ± 5 | 31.2 ± 3.7

Row | Structure (SMILES) | chemical recovery [1] [%] | chemical recovery [2] [%] | chemical recovery [3] [%] | chemical recovery [4] [%]
20 | Sc1ncnc2nc[nH]c12 [6-Mercaptopurine] | 0.069 ± 0.0096 | 0.144 ± 0.25 | 0.00575 ± 0.005 | 
21 | C[C@]12CCC(=O)C=C1[C@H](O)C[C@@H]1[C@@H]2[C@@H](O)C[C@@]2(C)[C@H]1CC[C@]2(O)C(=O)CO [6-beta-Hydroxycortisol] |  |  |  | 45.1 ± 7.2
22 | O=S(=O)(O)CCC(F)(F)C(F)(F)C(F)(F)C(F)(F)C(F)(F)C(F)(F)F [6.2 fluorotelomer sulfonic acid] | 35.9 ± 1.7 | 75.6 ± 2.9 |  | 43.1 ± 5
23 | O=P(O)(OCCC(F)(F)C(F)(F)C(F)(F)C(F)(F)C(F)(F)C(F)(F)F)OCCC(F)(F)C(F)(F)C(F)(F)C(F)(F)C(F)(F)C(F)(F)F [6.2-Fluorotelomerphosphate-diester] | 7.04 ± 2.1 |  |  | 
24 | CC(C)CC(C)NC1=CC(=O)C(Nc2ccccc2)=CC1=O (stereo not given) [6PPD-quinone] | 51.9 ± 4.4 | 79.3 ± 4 | 16.3 ± 4.4 | 
25 | C[C@H](CCC(=O)O)[C@H]1CC[C@H]2[C@@H]3C(=O)C[C@@H]4C[C@H](O)CC[C@]4(C)[C@H]3CC[C@]12C [7-Oxolithocholic-acid] | 38.6 ± 2.2 | 65.4 ± 3.4 | 51.1 ± 5.2 | 
26 | O=S(=O)(O)CCC(F)(F)C(F)(F)C(F)(F)C(F)(F)C(F)(F)C(F)(F)C(F)(F)C(F)(F)F [8.2-Fluorotelomersulfonic-acid] | 34 ± 2.1 |  |  | 
27 | Cc1ccc2c(c1)c1cccc3ccc4cccc2c4c31 [10-Methylbenzo[e]pyrene] | 0.0979 ± 0.085 | 10.9 ± 1.3 |  | 
28 | C[N+](C)(C)CC(O)CCl (stereo not given) [(3-Chloro-2-hydroxypropyl)trimethylammonium] | 1.05 ± 0.96 |  | 0.458 ± 0.03 | 9.57 ± 8
29 | O=C(O)Cc1ccc(S(=O)(=O)O)cc1 [(4-Sulfophenyl)acetic acid] |  |  |  | 6.28 ± 4
30 | CC1NC(C)(C)COC1(O)c1cccc(Cl)c1 [(S,S)-Hydroxybupropion] | 36.3 ± 2.2 | 59.9 ± 3.2 | 5.72 ± 0.93 | 
31 | c1cc2c3c(cccc3c1)CC2 [Acenaphthene] | 9.53 ± 0.88 |  |  | 3.64 ± 1.1
32 | COP(=O)(NC(C)=O)SC (stereo not given) [Acephate] | 5.48 ± 5.2 |  | 3.58 ± 0.54 | 
33 | CC(=O)Nc1ccccc1 [Acetanilide] | 42 ± 2.4 | 80.1 ± 3.5 | 40.3 ± 9.3 | 
34 | C[C@@]12CCC[C@H]1[C@@H]1CC[C@H]3C[C@@H](O)CC[C@]3(C)[C@H]1CC2 [Androstanol] | 1.3 ± 0.4 | 44.7 ± 6 |  | 
35 | Nc1ccccc1 [Aniline] | 4.14 ± 2.7 |  | 4.94 ± 0.92 | 
36 | CC(C)(C)c1cc(Cn2c(=O)n(Cc3cc(C(C)(C)C)c(O)c(C(C)(C)C)c3)c(=O)n(Cc3cc(C(C)(C)C)c(O)c(C(C)(C)C)c3)c2=O)cc(C(C)(C)C)c1O [Antioxidant-3114] | 5.69 ± 2.6 | 58.4 ± 13 |  | 
37 | CC(C)c1c(C(=O)Nc2ccccc2)c(-c2ccccc2)c(-c2ccc(F)cc2)n1CC[C@@H](O)C[C@@H](O)CC(=O)O [Atorvastatin] | 30.1 ± 3.9 | 61.7 ± 3 | 32.2 ± 9.6 | 41.1 ± 8.4
38 | O=C(O)CCCCCCCC(=O)O [Azelaic-acid] | 53.1 ± 4 |  |  | 

Next, values leading:

Row | chemical recovery [1] [%] | chemical recovery [2] [%] | chemical recovery [3] [%] | chemical recovery [4] [%] | Structure (SMILES)
39 | 35.7 ± 2.3 | 42.3 ± 3.4 |  |  | Oc1cc(-c2ccc(Cl)cc2)ccc1Cl [3-Hydroxy-4,4'-dichlorobiphenyl]
40 | 43.2 ± 5.5 |  | 21.7 ± 5 |  | COc1cc(NC(=O)CC(C)=O)c(OC)cc1Cl [4'-Chloro-2',5'-dimethoxyacetoacetanilide]
41 | 1.65 ± 0.55 | 30.1 ± 2.7 | 54.3 ± 19 |  | ClC=C(c1ccc(Cl)cc1)c1ccc(Cl)cc1 [4,4'-DDMU]
42 | 32.7 ± 2.9 | 73.8 ± 2.2 | 27.3 ± 3.6 |  | Cc1cc(N)c2ccccc2n1 [4-Amino-2-methylquinoline]
43 | 63.7 ± 4.4 |  | 69.6 ± 6.2 |  | CN(C)S(=O)(=O)c1ccc(N)cc1 [4-Amino-N,N-dimethylbenzenesulfonamide]
44 | 45.4 ± 4.2 | 77.3 ± 4 | 51.6 ± 4 |  | CN(C)S(=O)(=O)c1ccc(N)cc1 [4-Amino-NN-dimethylbenzenesulfonamide]
45 | 8.59 ± 2.6 | 67.1 ± 4.8 | 6.85 ± 1.7 |  | Cc1c(N)c(=O)n(-c2ccccc2)n1C [4-Aminoantipyrine]
46 | 1.91 ± 0.31 |  | 1.74 ± 1.1 |  | Nc1ccc(Nc2ccccc2)cc1 [4-Aminodiphenylamine]
47 | 26.5 ± 3.5 | 55 ± 2.7 | 11 ± 2.9 |  | COc1cc(Cl)c(OC)cc1N [4-Chloro-2,5-dimethoxyaniline]
48 | 34.4 ± 4.1 | 69.5 ± 2.1 | 41.3 ± 3.5 |  | Cc1c(C=O)c(=O)n(-c2ccccc2)n1C [4-Formyl-antipyrine]
49 | 15.1 ± 2.4 | 23.6 ± 3.4 | 6.67 ± 1.6 | 18.2 ± 5.3 | CC(C)c1ccc(N)cc1 [4-Isopropylaniline]
50 | 39.5 ± 6.2 | 82.7 ± 14 | 45.3 ± 6.9 |  | COc1cc([N+](=O)[O-])ccc1O [4-Nitroguaiacol]
51 | 21.3 ± 1.8 |  |  |  | Oc1c(Cl)cc(Cl)c2cccnc12 [5,7-Dichloro-8-hydroxyquinoline]
52 | 10.5 ± 3.9 | 65 ± 2.7 |  | 18.3 ± 2.4 | Nc1cccc2cc(S(=O)(=O)O)ccc12 [5-Aminonaphthalene-2-sulfonic acid]
53 | 1.01 ± 0.069 | 58.3 ± 3.7 |  |  | Cc1c2ccccc2cc2c1cc(Br)c1ccccc12 [5-Bromo-7-methylbenzo[a]anthracene]
54 | 12.2 ± 4.9 |  | 2.63 ± 3.2 |  | Oc1ccc(Cl)c2cccnc12 [5-Chloro-8-hydroxyquinoline]
55 |  | 39.3 ± 5.3 |  |  | Oc1ccc2[nH]ccc2c1 [5-Hydroxyindole]
56 | 50.5 ± 17 | 0.332 ± 0.35 | 79.2 ± 17 |  | O=C(O)c1cc(C(=O)O)cc([N+](=O)[O-])c1 [5-Nitroisophthalic-acid]
57 | 33.9 ± 7.6 | 70.3 ± 3.6 | 29 ± 4 |  | CC(C)N1C(=O)c2cc(O)ccc2NS1(=O)=O [6-Hydroxybentazone]
58 | 94 ± 5.9 | 78.3 ± 2.5 | 65.9 ± 13 | 47.7 ± 7.5 | CCN(CC)c1ccc2c(C)cc(=O)oc2c1 [7-Diethylamino-4-methylcoumarin]
59 | 10.4 ± 5.1 |  | 1.62 ± 1.1 |  | Oc1cc(O)c2c(c1)O[C@H](c1ccc(O)c(O)c1)[C@H](O)C2 [(-)-Epicatechin]
60 |  | 77 ± 3.4 |  |  | Nc1nc(NC2CC2)c2ncn([C@H]3C=C[C@@H](CO)C3)c2n1 [Abacavir]
61 | 28.4 ± 1.4 | 49.6 ± 2.4 | 39.7 ± 8 | 51.6 ± 11 | c1ccc2nc3ccccc3cc2c1 [Acridine]
62 | 37.1 ± 7.2 |  | 5.97 ± 0.52 | 29.4 ± 6.9 | Nc1c(Br)cc(Br)cc1CN[C@H]1CC[C@H](O)CC1 [Ambroxol]
63 |  | 70.3 ± 3.4 |  |  | CCN1CCCC1CNC(=O)c1cc(S(=O)(=O)CC)c(N)cc1OC (stereo not given) [Amisulpride]
64 | 14 ± 6.1 | 76 ± 2.5 | 17.1 ± 4.2 |  | CC(C)NCC(O)COc1ccc(CC(N)=O)cc1 (stereo not given) [Atenolol]
65 | 8.77 ± 0.79 |  |  |  | COc1ccc(C(=O)CC(=O)c2ccc(C(C)(C)C)cc2)cc1 [Avobenzone]
66 |  |  | 5.01 ± 7.1 |  | Brc1cc(Br)c(Oc2c(Br)cc(Br)c(Br)c2Br)cc1Br [BDE183]
67 |  | 18.5 ± 1.6 |  |  | CCN(CCO)c1ccc(/N=N/c2sc3cc(OC)ccc3[n+]2C)cc1 [Basic-Blue-41]
